In general, IC50 refers to the midpoint of a concentration-inhibition curve.

For twelve compounds, IC50 results are on record in ChEMBL document CHEMBL1136678, “Novel indole-based inhibitors of IMPDH: introduction of hydrogen bond acceptors at indole C-3” (Bioorg Med Chem Lett, 2003).

For assay [1], the target named is Inosine-5'-monophosphate dehydrogenase 2 (Homo sapiens, UniProt P12268). Put plainly: Inhibition of 5'-inosine monophosphate dehydrogenase type II (IMPDH II).
For a further assay, the system named is CCRF-CEM. Put plainly: Inhibition of CEM T-cell proliferation. To be noted: Homo sapiens. Type of assay: functional, cell-based.
Assay [2] addresses Inosine-5'-monophosphate dehydrogenase 1 (Homo sapiens, UniProt P20839). Put plainly: Inhibition of 5'-inosine monophosphate dehydrogenase type I (IMPDH I).

A value given as a limit tells only on which side of the number the result lay.

Chain of Inosine-5'-monophosphate dehydrogenase 1 (P20839 whole entry): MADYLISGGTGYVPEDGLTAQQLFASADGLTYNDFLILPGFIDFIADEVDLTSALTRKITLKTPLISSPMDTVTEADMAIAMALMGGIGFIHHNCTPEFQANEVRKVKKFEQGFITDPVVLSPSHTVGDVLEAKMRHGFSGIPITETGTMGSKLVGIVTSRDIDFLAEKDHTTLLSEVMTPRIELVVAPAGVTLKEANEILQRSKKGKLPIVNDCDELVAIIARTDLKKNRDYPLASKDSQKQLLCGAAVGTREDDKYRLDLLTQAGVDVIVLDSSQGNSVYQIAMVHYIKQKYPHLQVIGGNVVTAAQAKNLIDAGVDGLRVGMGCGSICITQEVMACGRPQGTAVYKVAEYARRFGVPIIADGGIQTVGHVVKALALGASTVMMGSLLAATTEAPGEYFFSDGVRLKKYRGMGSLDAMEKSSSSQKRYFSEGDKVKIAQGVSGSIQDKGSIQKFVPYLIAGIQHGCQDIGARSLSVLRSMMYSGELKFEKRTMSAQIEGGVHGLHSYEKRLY

In assay [1], `COc1cc2[nH]c(Cc3ccccc3)c(C#N)c2cc1-c1cnco1` gave an IC50 of 220 nM. Regarding `COc1cc2[nH]c3c(c2cc1-c1cnco1)CC(=O)CC3`, it took 290 nM to reach half-maximal inhibition in assay [1] (IC50). Take `COc1cc2[nH]c(-c3ccccc3)cc2cc1-c1cnco1`: the IC50 in the assay with CCRF-CEM is over 10000 nM; in assay [1], 500 nM. For the compound `COc1cc2[nH]c(-c3csc4ccccc34)c(C=O)c2cc1-c1cnco1`, the results for the IC50 (with CCRF-CEM; in assay [2]; in assay [1]) were 550 nM, 160 nM and 30 nM, respectively. `COc1cc2[nH]c(-c3ccccc3)c(C#N)c2cc1-c1cnco1` came in with an IC50 in assay [1] of 130 nM.

In assay [1], `COc1cc2[nH]c(-c3ccccc3)c(C=O)c2cc1-c1cnco1` showed a half-maximal inhibitory concentration (IC50) of 230 nM.

The compound `COc1cc2[nH]c3c(c2cc1-c1cnco1)CCCC(=O)C3` registered an IC50 in assay [1] of 150 nM. With `COc1cc2[nH]c(-c3csc4ccccc34)cc2cc1-c1cnco1`, the concentration for half-maximal inhibition (IC50) in assay [1] stood at 500 nM.

Consider `COc1cc2[nH]c(Cc3ccccc3)c(C=O)c2cc1-c1cnco1`, for which it took 360 nM to reach half-maximal inhibition in assay [1] (IC50). On the same count and under the same terms, for `CCOC(=O)c1c(-c2ccccc2)[nH]c2cc(OC)c(-c3cnco3)cc12` the value was over 1000 nM; for `COc1cc2[nH]c(Cc3ccccc3)cc2cc1-c1cnco1`, 600 nM; for `COc1cc2[nH]c(-c3csc4ccccc34)c(C#N)c2cc1-c1cnco1`, 64 nM.
